# Data: patent US10869844B2, “Methods for the treatment of depression” (Janssen Pharmaceutica NV, priority 2014, dated 2020)
# Like-named read-outs stand apart in the source and are kept apart here.
# Columns and labels:
# adult subjects with TRD [1] = settings: for Day 17 responders who maintained response status up to Day 35, % / Day 17 responders who maintained response status up to Day 35, number: all subjects
# adult subjects with TRD [2] = assay type: in vivo, human; settings: for Non-responders % / Non-responders N / Responders % (MADRS total score reduction >50% TRD2001, ≥50% TRD2002) / Responders N (MADRS total score reduction >50% TRD2001, ≥50% TRD2002): after first infusion (Day 2 TRD2001, Day 3 or 4 TRD2002)
# Method: Association between changes in MADRS total score from baseline and the SNP rs6265 after a single dose was evaluated in placebo subjects and active subjects using an ANCOVA model under a dominant model with baseline MADRS total score, and grouped genotype (Val/Val or Met carrier). A statistically significant result was found in active subjects (p=0.02).
# Association between the % responders and the SNP rs6265 after a single dose was evaluated in placebo subjects and active subjects using a logistic regression model under a dominant model with baseline MADRS total score and grouped genotype (Val/Val or Met carrier). A statistically significant result was found in active subjects (p=0.03).
# Association between the % remitters and the SNP rs6265 after a single dose was evaluated in placebo subjects and as well as in active subjects using a logistic regression model under a dominant model with baseline MADRS total score and grouped genotype (Val/Val or Met carrier).
# [3] = tested on: patients with major depressive disorders; settings: cited from earlier work
# Met/Met knocked in mice = settings: LIU, Biol. Psychiatry 2012; cited from earlier work
smiles,measurement,setting,value
"CNC1(c2ccccc2Cl)CCCCC1=O (racemic) [Ketamine, ketamine]","Day 17 responders who maintained response status up to Day 35, %",adult subjects with TRD [1]; Met carriers (of 7),42.9%
same,"Day 17 responders who maintained response status up to Day 35, number",adult subjects with TRD [1]; Met carriers (of 7),3
same,"Day 17 responders who maintained response status up to Day 35, %",adult subjects with TRD [1]; Val/Val (of 12),91.7%
same,"Day 17 responders who maintained response status up to Day 35, number",adult subjects with TRD [1]; Val/Val (of 12),11
same,"Responders on Day 17, number",adult subjects with TRD [1]; among all subjects (Val/Val and Met carriers),19
same,"Responders on Day 17, number","adult subjects with TRD [1]; among all subjects, Met carriers",7
same,"Responders on Day 17, number","adult subjects with TRD [1]; among all subjects, Val/Val",12
same,Non-responders %,adult subjects with TRD [2]; Met carriers,92.3%
same,Non-responders N,adult subjects with TRD [2]; Met carriers,12
same,"Responders % (MADRS total score reduction >50% TRD2001, ≥50% TRD2002)",adult subjects with TRD [2]; Met carriers,7.7%
same,"Responders N (MADRS total score reduction >50% TRD2001, ≥50% TRD2002)",adult subjects with TRD [2]; Met carriers,1
same,Non-responders %,adult subjects with TRD [2]; Val/Val,71.4%
same,Non-responders N,adult subjects with TRD [2]; Val/Val,15
same,"Responders % (MADRS total score reduction >50% TRD2001, ≥50% TRD2002)",adult subjects with TRD [2]; Val/Val,28.6%
same,"Responders N (MADRS total score reduction >50% TRD2001, ≥50% TRD2002)",adult subjects with TRD [2]; Val/Val,6
same,Clinical response associated with Met allele of Val66Met rs6265,"adult subjects with TRD [2]; acute, single dose administration",smaller clinical response
same,"Likelihood of antidepressant response, Val/Val BDNF allele at rs6265 vs Met carriers","[3]; MDD patients, LAJE, Biol. Psychiatry 2012",more likely to exhibit antidepressant response to ketamine than Met carriers
same,Onset of rapid antidepressant effect,[3]; patients with major depressive disorders,within two hours
same,"Antidepressant-like response, Met/Met knocked in mice compared to Val/Val mice",Met/Met knocked in mice,blunted antidepressant-like response
same,"Synaptogenesis, Met/Met knocked in mice compared to Val/Val mice",Met/Met knocked in mice,reduced synaptogenesis
